The assay relates to Plasmodium falciparum. In words: GSK_TCMDC: Inhibition of Plasmodium falciparum 3D7 in whole erythrocytes, using parasite LDH activity as an index of growth. The following applies: Plasmodium falciparum, 3D7. The assay is classed as functional, organism-based.

`Fc1ccccc1C=NN=c1cc[nH]c2ccc(C(F)(F)F)cc12` yielded an XC50 of 871 nM. With `CNC(=O)c1c(NC(=O)c2cccs2)sc2c1CCCC2` the figure was 818 nM; with `O=C(NCc1ccc(F)cc1)Nc1ccc(-c2cccc(-c3nc4cc(F)ccc4[nH]3)c2)cc1`, 1120 nM. On to `COC(=O)c1cccc(CNCc2cccc(-c3csc(-c4nc5ccccc5[nH]4)c3)c2)c1`, for which the XC50 worked out at 693 nM.

Molecule `O=C(Nc1nc(-c2ccccn2)cs1)c1ccc(S(=O)(=O)N2CCc3ccccc32)cc1` yielded an XC50 of 830 nM. Molecule `CN1CCN(CC2(Nc3nccc(NCc4ccc(Cl)cc4Cl)n3)CCCCC2)CC1` displayed an XC50 of 593 nM.

`Oc1cc(NCc2ccccc2NCc2ccc(Cl)c(Cl)c2)nc2ccccc12` showed an XC50 of 842 nM.

The molecule `N=C1SC(=Cc2cn[nH]c2-c2ccc(F)cc2)C(=O)N1c1nccs1` registered an XC50 of 225 nM. In the case of `CC[C@H](C)CNC(=O)c1ccnc(-c2cccc(CN(C)C3CCN(C)CC3)c2)c1` it was 898 nM. Consider `Oc1ccc(CCNCCCCNCCc2ccc(Cl)cc2)cc1O`, for which the XC50 is 843 nM. With `Cc1cc2nc(-c3ccc(OCC(=O)NCc4cccc(C(F)(F)F)c4)cc3)[nH]c2cc1C` the figure was 988 nM; with `CC(=NNc1nc2ccccc2s1)c1ccccn1`, 1120 nM. In the case of `CN1CCCc2ccc(NC(=O)C=Cc3ccc(-c4ccc(F)cc4F)o3)cc2C1` it was 522 nM; in that of `Cc1ccc(NC(=O)c2ccc3ncccc3c2)cc1OC1CCN(Cc2ccsc2)CC1`, 930 nM; in that of `Cc1cc(C2CCN(CCCCNC(=O)c3ccc(NC(=O)c4ccc(Cl)cc4)cc3)CC2)c(C)cc1OC(C)C`, 744 nM. In turn, `Cc1c(C)c2c(c(C)c1O)CC[C@](C)(C(=O)N1CCC(CCN3CCC(c4c[nH]c5ccccc45)CC3)CC1)O2` displayed an XC50 of 834 nM.

As for `COc1ccc(C(=O)CCC(=O)N(Cc2ccc(-c3ccc(CNCCc4ccccc4)cn3)cc2)C(C)CN(C)C)cc1F` (centres undefined), the XC50 is 747 nM. With `C=Cc1c(C2CCN(CCCCNC(=O)c3ccc(-c4ccc(C#N)cc4)cc3)CC2)ccc2c1CCCC2` the figure was 878 nM; with `O=C(Nc1cccc(-c2cccc(-c3nc4cc(C(F)(F)F)ccc4[nH]3)c2)c1)c1cccnc1`, 404 nM; with `CCCc1cn2c3c(cc(C(=O)N[C@@H](Cc4ccccc4)[C@H](O)CNC4CCCCC4)cc13)N(CC)S(=O)(=O)CC2`, 80.6 nM. In the case of `CCN(Cc1ccc(-c2ccc(C(F)(F)F)cc2)cc1)C(=O)Cn1c(SCc2cccc(F)c2F)cc(=O)c2cc(CN3CCCCC3)ccc21` it was 801 nM; in that of `CC(Cc1ccc(OCCCCOc2ccccc2)cc1)NCCCc1nc2ccccc2[nH]1` (centres undefined), 981 nM.

Molecule `O=C(Nc1ccc(OC2CCN(Cc3ccsc3)CC2)c(Cl)c1)c1cccs1` had an XC50 of 600 nM. With `CC[C@H]1CN2CC[C@H]1C[C@H]2[C@H](O)c1cc(-c2cccc(C)c2)nc2ccc(OC)cc12` the figure was 163 nM; with `CC(=O)Nc1ccc(S(=O)(=O)N2CCN(c3nc(NC4CCCC4)c4ccccc4n3)CC2)cc1`, 1030 nM. In the case of `CS(=O)(=O)c1cc2c(Nc3ccc(N4CCOCC4)cc3)c(C(N)=O)cnc2cc1Br` it was 249 nM; in that of `CC1(C)CCC(C)(C)c2c1ccc(C1CCN(CCCCNC(=O)c3ccc(-c4ccc(C#N)cc4)cc3)CC1)c2OCC(N)=O`, 421 nM; in that of `N#CN1CC[C@@H](OC(=O)N[C@@H]2C[C@H]2c2ccccc2)C1`, 1340 nM. With `O=[N+]([O-])c1ccccc1/C=N/Nc1ccnc2cc(Cl)ccc12` the figure was 876 nM; with `COc1ccc(CN(C)CCCc2ccc(NC(=O)c3cccc4c(=O)c5cccc(F)c5[nH]c34)cc2)cc1OC`, 937 nM. The molecule `CC(C)(C)c1ccc(NC(=O)c2cccc(CN3CCCN(Cc4cccc(C#N)c4)CC3)c2)cc1` showed an XC50 of 755 nM. In the case of `COc1ccc(CC(C)NCC(O)c2cccc(Cl)c2F)cc1` (centres undefined) it was 1080 nM; in that of `CCOc1ncccc1CN1CCC(N2CCc3cc(NC(=O)c4cc(C)on4)ccc32)C1` (centres undefined), 312 nM. Take `CCN(CC)CCN(Cc1ccc(-c2ccc(C(F)(F)F)cc2)cc1)C(=O)Cn1c(CCc2c(F)cccc2F)nc(=O)c2ccccc21`: the XC50 was found to be 637 nM.

With `COc1cccc2c(NN=Cc3ccccc3Cl)cc(C)nc12`, the XC50 worked out at 211 nM. `CN(C)CCOc1ccc2nc(-c3cccc(OCc4ccccc4)c3)[nH]c2c1C#N` yielded an XC50 of 256 nM. In turn, `COc1ccc(CNC(=O)c2cnc3c(O)cccc3c2Nc2cccc(NC(=O)c3ccc(Cl)c([N+](=O)[O-])c3)c2)cc1` yielded an XC50 of 945 nM. With `COc1ccccc1N1CCN(C(C(=O)NCc2ccc3c(c2)OCO3)c2ccc(C)cc2)CC1` (centres undefined) the figure was 985 nM; with `O=C(/C=C/c1ccc(Cl)c(Cl)c1)NCCCCCN1CCC(NC(=O)Nc2ccc(Oc3ccccc3)cc2)C1` (centres undefined), 594 nM; with `O=S(=O)(Nc1cccc(CCN2CCC(N3CCCCC3)CC2)c1)c1ccc(Oc2ccccc2)nc1`, 928 nM. In the case of `N=C(N)c1ccc(C=CC(=O)NCC(O)CNC(=O)C=Cc2ccc(C(=N)N)cc2)cc1` (centres undefined) it was 31.4 nM; in that of `CCN(CC)CCN(Cc1ccc(-c2ccc(C(F)(F)F)cc2)cc1)C(=O)Cn1c(SCc2ccc(F)cc2)cc(=O)c2ccccc21`, 752 nM; in that of `COC(=O)c1cccc(NC(=O)NCCNc2ccnc(Nc3ccc(F)cc3)n2)c1`, 837 nM. With `N#C/N=C(\NCCCCCCCCN/C(=N\C#N)NCCSCc1csc(N=C(N)N)n1)NCCCSc1csc(N=C(N)N)n1` the figure was 844 nM; with `CCNc1cc(C(=O)N[C@@H](Cc2ccccc2)[C@H](O)CNC23CCC(CC2)C3)cc(N2CCCCS2(=O)=O)c1`, 34.1 nM; with `Cc1cc(NCCC(=O)Nc2ccccc2)nc(NCCc2ccccc2)n1`, 852 nM. On to `Cc1ccc(NC(=O)c2ccnc(N3CCN(c4ccncc4)CC3)c2)cc1F`, for which the XC50 turned out to be 873 nM. Regarding `Cc1cccc(CNc2nc(C)cc(NCCC(=O)Nc3ccccc3)n2)c1`, the XC50 came out at 1050 nM. Turning to `CC[C@H]1CN2CC[C@@H]1C[C@H]2[C@H](O)c1cc(N2CCC(CO)CC2)nc2ccc(OC)cc12`, the XC50 was 162 nM.

Take `COc1ccc(CNCc2ccc(F)cc2)cc1-c1ccc(S(=O)(=O)NCCN2CCCC2)cc1`: the XC50 turned out to be 1040 nM.

`O=C(c1cc2cccc([N+](=O)[O-])c2[nH]1)N1CCC(CCN2CCC(c3c[nH]c4ccccc34)CC2)CC1` had an XC50 of 943 nM.

For `CNS(=O)(=O)c1ccc2c(c1)nc(C1CCN(CC3CCC(NC(=O)/C=C/c4ccc(Cl)c(Cl)c4)CC3)CC1)n2C` (centres undefined), the XC50 was found to be 670 nM. `CCOc1cccc(C(=O)Nc2cccc(CN3CCCN(Cc4cccc(O)c4)CC3)c2)c1` gave an XC50 of 1090 nM. For the molecule `COc1cc2c(cc1C(F)(F)F)N(C(=O)Nc1cccc(-c3ccc(CN(C)C)cc3)c1)CC2`, the XC50 amounted to 710 nM. In the case of `O=S(=O)(c1ccc2ccccc2c1)N1CCCN(Cc2ccc(OCCCN3CCCCC3)cc2)CC1` it was 1100 nM; in that of `CC(=O)N(C)C1CCN(Cc2ccc(-c3cccc(-c4nc5cc(F)ccc5[nH]4)c3)cc2)C1` (centres undefined), 596 nM. Consider `Cc1nc(-c2nc(NCCc3ccncc3)ncc2-c2ccsc2)sc1C`, for which the XC50 was 298 nM. In the case of `COC(=O)Cn1c(C2CCN(CC3CCC(NC(=O)/C=C/c4ccc(Cl)c(Cl)c4)CC3)CC2)nc2ccccc21` (centres undefined) it was 1140 nM; in that of `c1ccc2c(NCCCCCCCNc3ccnc4ccccc34)ccnc2c1`, 169 nM.
